What is called IC50 is the concentration at which inhibition is half-maximal. One may read the IC90 as the concentration needed for an effect of 90%.

Here are results for six compounds from ChEMBL document CHEMBL4043090 (Bioorg Med Chem, 2017).

The nature of series [1]: Cytotoxicity against human MAGI-CCR5 cells assessed as reduction in cell viability after 48 hrs by MTS assay. As to conditions: read-out: TC50. It is filed as cell-based. (Tetrazolium dyes change colour on reduction, which living cells bring about.)
Series [2] concerns Human immunodeficiency virus 1. The series can be described thus: Antiviral activity against HIV-1 Bal infected in human MAGI-CCR5 cells assessed as reduction in viral infection after 48 hrs by fluorescence based beta-galactosidase reporter gene assay. It is filed as functional, cell-based. To be noted: for IC50 / IC90: Human immunodeficiency virus 1, Bal, MAGI-CCR5, 48 h. Background: Reporter assays use an easily measured gene product as a stand-in for the process of interest.

The nature of series [3]: Therapeutic index, ratio of TC50 for human MAGI-CCR5 cells to IC50 for HIV-1 Bal infected in MAGI-CCR5 cells.
The subject of series [4] is PBMC. The series can be described thus: Antiviral activity against HIV-1 Bal infected in human PBMC by MTS assay. It is filed as functional, cell-based.
Series [5] can be described thus: Cytotoxicity against human PBMC assessed as reduction in cell viability by MTS assay. The format is cell-based. As to conditions: read-out: TC50 (the source's name).
Series [6] can be described thus: Therapeutic index, ratio of TC50 for human PBMC to IC50 for HIV-1 Bal infected in human PBMC.
Series [7] in a line: Metabolic stability in rat plasma assessed as compound remaining at 100 uM after 1 hr by LC/MS analysis. The format is ADME, cell-free. As to conditions: read-out: Stability.
Series [8] in a line: Metabolic stability in rat liver microsomes assessed as compound remaining at 4 uM preincubated for 5 mins followed by NADPH addition measured after 60 mins by LC/MS analysis. To be noted: read-out: Stability. It is filed as ADME, microsome.
Series [9] can be described thus: Therapeutic index, ratio of TC50 for human MAGI-CCR5 cells to IC50 for HIV-1 NL4-3 infected in MAGI-CCR5 cells.
In series [10] the test system is Human immunodeficiency virus 1. The format is functional, cell-based. To be noted: Human immunodeficiency virus 1, A17, MAGI-CCR5, 48 h.
Series [11] has as its system Human immunodeficiency virus 1. The experiment in a line: Antiviral activity against HIV-1 NL4-3 harboring reverse transcriptase K103N mutant infected in human MAGI-CCR5 cells assessed as reduction in viral infection after 48 hrs by fluorescence based beta-galactosidase reporter gene assay. The format is functional, cell-based. To be noted: Human immunodeficiency virus 1, NL4-3, MAGI-CCR5, 48 h.

Series [12] concerns Human immunodeficiency virus 1. The format is functional, cell-based. To be noted: Human immunodeficiency virus 1, NL4-3, MAGI-CCR5, 48 h.
Series [13] in a line: Therapeutic index, ratio of TC50 for human MAGI-CCR5 cells to IC50 for HIV-1 NL4-3 harboring reverse transcriptase K103N mutant infected in MAGI-CCR5 cells.
Series [14] can be described thus: Therapeutic index, ratio of TC50 for human MAGI-CCR5 cells to IC50 for HIV-1 NL4-3 harboring reverse transcriptase E138A mutant infected in MAGI-CCR5 cells.
The subject of series [15] is Human immunodeficiency virus 1. The experiment in a line: microbe, parasite or virus in culture. As to conditions: Human immunodeficiency virus 1, NL4-3, MAGI-CCR5, 48 h.
Description: Antiviral activity against wild type HIV-1 NL4-3 infected in human MAGI-CCR5 cells assessed as reduction in viral infection after 48 hrs by fluorescence based beta-galactosidase reporter gene assay
Series [16] relates to Human immunodeficiency virus 1. The experiment in a line: microbe, parasite or virus in culture. To be noted: Human immunodeficiency virus 1, NL4-3, MAGI-CCR5, 48 h. The source holds these as a separate data set.
Description: Antiviral activity against HIV-1 NL4-3 harboring reverse transcriptase E138A mutant infected in human MAGI-CCR5 cells assessed as reduction in viral infection after 48 hrs by fluorescence based beta-galactosidase reporter gene assay
Series [17] can be described thus: (§1) Inhibition of HIV1 NL4-3 reverse transcriptase assessed as reduction in [3H]dTTP incorporation using poly(rA)/oligo(dT) as template/primer after 1 hr by microbeta scintillation counting analysis. Set-up: species or system Human immunodeficiency virus 1.
Series [18] has as its system Human immunodeficiency virus 1. The series is described as §1.

For `CC1=C(c2nc(-c3ccc(C#N)cc3)cs2)C(c2cc3ccccc3n2C)NC(=O)N1` (centres undefined), the CC50 at 48 h in [1] was more than 100000 nM. In addition, in [2], the Activity result is “Dose-dependent effect”. Further, the concentration for half-maximal inhibition (IC50) was 700 nM in [2]; 1100 nM in series [4]; more than 100000 nM in series [10]; 3840 nM in [11]; more than 100000 nM in series [12]; 520 to 900 nM in series [15]. The midpoint of inhibition in series [16], the IC50, lay at 43500 nM. Also, the IC90 was 3700 nM in series [2]; 3200 nM in series [4]; more than 100000 nM in series [11]; more than 100000 nM in [12]; 5000 to 8390 nM in [15]; more than 100000 nM in series [16]. Besides, the TI in series [3] was 143; in [6] it was 91; in [9] it was “>=111 - 192”; in series [13], more than 26.04; in series [14], more than 2.3. Also, in series [5], the CC50 is more than 100000 nM. Also, in series [7], the remaining at 1 h, 100 µM amounted to 95.6%. Further, the remaining at 1 h, 4 µM in [8] was 62.9%.

As to `Cc1cn([C@H]2C[C@H](N=[N+]=[N-])[C@@H](CO)O2)c(=O)[nH]c1=O` [ZIDOVUDINE], in series [1], the CC50 at 48 h is more than 1000 nM. Moreover, the half-maximal inhibitory concentration (IC50) in [11] came out at 10 nM; in series [12] it was 9 nM. The IC90 in series [11] was 210 nM; in series [12], 100 nM; in series [15] it was 350 nM; in [16], more than 1000 nM.

In [4], `CC1=C(c2nc(-c3ccc(C#N)cc3)cs2)[C@@H](c2cccc(O)c2)NC(=O)N1` returned an IC50 of 110 nM and an IC90 of 420 nM. Moreover, in [5], the CC50 is more than 100000 nM. In addition, in series [6], the TI is reported as more than 909. Also, the IC50 in [17] came out at 600 nM. The inhibition entry in series [18] was “Dose-dependent effect”.

For `CC1=C(c2nc(-c3ccc(C#N)cc3)cs2)C(c2ccc(F)nc2)NC(=O)N1` (centres undefined), the CC50 at 48 h in [1] was more than 100000 nM. Moreover, the Activity entry in series [2] is “Dose-dependent effect”. For the same compound, the IC50 in series [2] is 1100 nM; in series [4], 590 nM; in [10], more than 100000 nM; in [15] it was 1100 nM. Further, the IC90 in series [2] was 5400 nM; in series [4] it was 2000 nM; in series [10], more than 100000 nM; in series [15], 7600 nM. The values for the TI in series [3], in [6] and in series [9] were 91, 170 and more than 91, respectively. Further, the CC50 in series [5] is more than 100000 nM. Besides, in series [7], the remaining at 1 h, 100 µM was found to be 100%. For the same compound, the remaining at 1 h, 4 µM in [8] came to 49.4%.

Regarding `Cc1ccnc2c1NC(=O)c1cccnc1N2C1CC1` [NEVIRAPINE], in series [2], the Activity entry was “Dose-dependent effect”. Also, the IC50 was 40 nM in series [2]; 40 to 60 nM in [4]; more than 10000 nM in [10]; 30 nM in series [11]; more than 10000 nM in [12]; 40 to 70 nM in [15]. For the same compound, the IC90 is 30 to 420 nM in [2]; 180 to 190 nM in [4]; 350 nM in [11]; more than 10000 nM in series [12]; 540 to 600 nM in series [15]; more than 10000 nM in series [16].

For `CC1=C(c2nc(-c3ccc(C#N)cc3)cs2)[C@H](c2cccc(O)c2)NC(=O)N1`, the values for the IC50 in series [4] and in series [17] were 22000 nM and more than 10000 nM, respectively. Further, the 90% effect level in series [4] (IC90) was put at 77000 nM. Besides, the TI in series [6] was more than 4.5.
